# Test results taken from US20050124618A1, “Methods of modulating angiogenesis and cancer cell proliferation” (priority 2003, published 2005).
# Entries after “also recorded” stand apart in the source; their conditions may differ.
# Tested on: 9L gliosarcoma tumors
# Assay: Growth of 9L gliosarcoma brain tumors in rats (tumor volume)
# Type: in vivo, rat
# Method: Tumor Implantation: Before implantation, 90% confluent 9L cells were trypsinized and centrifuged. The cell pellet was resuspended in DMEM+10% FBS and counted using a hemocytometer. The concentration of the 9L cells was adjusted to 1×10^4 cells/5 μl of medium. p The brain tumors were seeded by injecting the 9L cell suspensions into the frontal cerebral cortex of Fisher 344 rats that were purchased from Charles River Laboratories (Wilmington, Mass.) as follows. The rats were anesthetized with ketamine (80 mg/Kg, im) and Xylazine (13 mg/Kg), the head was immobilized in a stereotactic frame (David Kopf Instruments, Tujunga, Calif.) and the skull was exposed. A small hole was drilled in the skull 2 mm lateral and 2.5 mm anterior of the bregma, and 5 μl of the 9L gliosarcoma cell suspension were injected 3.5 mm into to cerebral cortex over a 5 min period using a 10 μl Hamilton (#2701) syringe attached to a 26 gauge needle. The hole was sealed with bone wax and the incisions were closed. […] The brains were removed and stored in 10% formalin. […]
# Images of H&E stained sections containing tumor were captured using a SONY CCD camera using 2× objective. Using the AIS Image Analysis System (Imaging Research, St. Catherine, ON, Canada) software, the area of tumor in each section was manually outlined and measured in mm^2. […]
smiles,measurement,setting,value
"CCCCc1ccc(N=CNO)c(C)c1 [HET0016, N-hydroxy-N′-(4-butyl-2 methylphenyl) formamidine]",reduction of the volume of the brain tumor compared to control animals,"9L cells in rat forebrain, HET0016 10 mg/kg/day sc for 15 days, b179 prints 1 mg/Kg/day, ip, about 2 weeks",80%
same,appearance of rats and tumor size at necropsy,17 days after implantation of the tumor,looked healthier; also recorded: much smaller tumor at necropsy
